Experimental data from US20130158072A1, “KAPPA OPIOID RECEPTOR BINDING LIGANDS” (Research Triangle Institute, priority 2010, published 2013).
Where “and” joins values, the source holds several entries; their conditions need not be identical. Equal values may be shown once. Where a name gives a salt, the structure may show the parent alone.

Assays:
[1] = target: T1, cloned human δ-opioid receptor (Homo sapiens, UniProt P41143); assay: Inhibition of DPDPE-stimulated [35S]GTPγS binding; type: biochemical; conditions: for δ, DPDPE Ke: antagonism of DPDPE-stimulated [35S]GTPγS binding, CHO cells, means ± SE, at least three experiments
T1 construct: expressed in transfected cells; host or cells: CHO cells
T1 sequence (P41143 whole entry): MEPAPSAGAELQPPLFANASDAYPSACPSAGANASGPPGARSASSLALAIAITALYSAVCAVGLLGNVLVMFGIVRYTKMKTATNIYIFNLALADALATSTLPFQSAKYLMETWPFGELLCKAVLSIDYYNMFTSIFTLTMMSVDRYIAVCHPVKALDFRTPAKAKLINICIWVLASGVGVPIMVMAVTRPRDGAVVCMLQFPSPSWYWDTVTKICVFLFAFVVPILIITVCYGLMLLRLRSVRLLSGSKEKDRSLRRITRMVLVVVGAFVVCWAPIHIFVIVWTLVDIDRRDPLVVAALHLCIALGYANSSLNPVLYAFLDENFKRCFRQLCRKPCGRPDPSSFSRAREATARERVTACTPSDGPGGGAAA
Protocol: (§1) Test compound assay concentrations ranged from 1-5000 nM, depending on their activity. The Ke values were calculated using the formula: Ke=[L]/DR−1, where [L] is the concentration of test compound and DR is the ratio of agonist EC50 value in the presence or absence of test compound, respectively.

[2] = target: T2, cloned human μ-opioid receptor (Homo sapiens, UniProt P35372); assay: Inhibition of DAMGO-stimulated [35S]GTPγS binding; type: biochemical; conditions: for potency at μ receptors compared to 3: compared with 3; for μ, DAMGO Ke: antagonism of DAMGO-stimulated [35S]GTPγS binding, CHO cells, means ± SE, at least three experiments
T2 construct: expressed in transfected cells; host or cells: CHO cells
T2 sequence (P35372 whole entry): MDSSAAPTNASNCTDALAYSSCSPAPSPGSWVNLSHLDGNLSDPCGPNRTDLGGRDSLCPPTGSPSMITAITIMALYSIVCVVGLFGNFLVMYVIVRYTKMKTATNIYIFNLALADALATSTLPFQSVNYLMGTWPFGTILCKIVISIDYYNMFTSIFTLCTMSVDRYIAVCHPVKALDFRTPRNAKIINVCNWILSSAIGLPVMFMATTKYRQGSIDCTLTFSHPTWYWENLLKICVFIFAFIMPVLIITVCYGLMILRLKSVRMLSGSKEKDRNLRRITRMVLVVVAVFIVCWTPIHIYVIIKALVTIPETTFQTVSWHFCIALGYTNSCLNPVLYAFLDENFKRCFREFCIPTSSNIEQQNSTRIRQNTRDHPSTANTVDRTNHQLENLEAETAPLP
Protocol: as §1

[3] = target: cloned human κ-opioid receptor (Homo sapiens, UniProt P41145); assay: Inhibition of U69,593-stimulated [35S]GTPγS binding; conditions: for change in potency on N-methylation at the tetrahydroisoquinoline nitrogen: 8c: at all receptor subtypes, others: at κ receptors; for μ/κ / δ/κ: ratio of Ke values; for μ/κ: κ selectivity relative to μ; for κ, U69,593 Ke: antagonism of U69,593-stimulated [35S]GTPγS binding, CHO cells, means ± SE, at least three experiments; for δ/κ: κ selectivity relative to δ
cloned human κ-opioid receptor, sequence (P41145 whole entry): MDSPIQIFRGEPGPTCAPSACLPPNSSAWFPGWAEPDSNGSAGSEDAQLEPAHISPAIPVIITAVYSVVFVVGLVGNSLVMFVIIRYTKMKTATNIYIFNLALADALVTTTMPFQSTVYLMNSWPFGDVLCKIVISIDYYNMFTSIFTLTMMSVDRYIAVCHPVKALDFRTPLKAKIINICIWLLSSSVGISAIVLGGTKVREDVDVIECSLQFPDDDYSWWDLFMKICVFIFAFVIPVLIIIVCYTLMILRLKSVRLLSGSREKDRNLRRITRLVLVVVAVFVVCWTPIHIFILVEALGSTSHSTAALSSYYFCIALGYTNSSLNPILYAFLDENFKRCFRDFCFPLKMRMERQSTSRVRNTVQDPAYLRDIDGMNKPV
Protocol: as §1

Q: Which Kb [1] does the source give for `CC[C@H](C)[C@@H](CN1CC[C@@](C)(c2cccc(OC)c2)[C@@H](C)C1)NC(=O)[C@H]1Cc2ccc(O)cc2CN1C` [Compound 8p, (3R)-7-Hydroxy-N-[(1S,2S)-1-{[(3R,4R)-4-(3-methoxyphenyl)-3,4-dimethylpiperidin-1-yl]methyl}-2-methylbutanyl]-2-methyl-1,2,3,4-tetrahydroisoquinoline-3-carboxamide] here?
A: > 10000 nM

Q: And the Kb [2]?
A: 360 ± 120 nM

Q: And the Kb [3]?
A: 2.03 ± 0.03 nM

Q: And the “change in potency on N-methylation at the tetrahydroisoquinoline nitrogen” value (shortened to “change in potency on N-methylation”) [3]?
A: decreases in potency

Q: What about the μ/κ [3] of the same compound?
A: 180

Q: Which results are given for `CC[C@H](C)[C@@H](CN1CC[C@@](C)(c2cccc(OC)c2)[C@@H](C)C1)NC(=O)[C@@]1(C)Cc2ccc(O)cc2CN1` [Compound 8n, (3R)-7-Hydroxy-N-[(1S,2S)-1-{[(3R,4R)-4-(3-methoxyphenyl)-3,4-dimethylpiperidin-1-yl]methyl}-2-methylbutanyl)-3-methyl-1,2,3,4-tetrahydroisoquinoline-3-carboxamide]?
A: Kb [1]: 2100 ± 600 nM; Kb [3]: 0.52 ± 0.2 nM

Q: What does the source list for `CC[C@H](C)[C@@H](CN1CC[C@@](C)(c2cccc(OC)c2)[C@@H](C)C1)NC(=O)[C@H]1Cc2ccc(O)cc2CN1` [Compound 8f, (3R)-7-Hydroxy-N-[(1S,2S)-1-{[(3R,4R)-4-(3-methoxyphenyl)-3,4-dimethylpiperidin-1-yl]methyl}-2-methylbutanyl]-1,2,3,4-tetrahydroisoquinoline-3-carboxamide]?
A: Kb [2]: 5.1 ± 2 nM; potency at μ receptors compared to 3 [2]: increased potency; Kb [3]: 0.96 ± 0.4 nM

Q: For `CC(C)[C@@H](CN1CC[C@@](C)(c2cccc(O)c2)[C@@H](C)C1)NC(=O)[C@@]1(C)Cc2ccc(O)cc2CN1` [Compound 8e, (3R)-7-Hydroxy-N-[(1S)-1-[(3R,4R)-4-(3-hydroxyphenyl)-3,4-dimethylpiperidin-1-yl]methyl}-(2-methylpropyl]-3-methyl-1,2,3,4-tetrahydroisoquinoline-3-carboxamide], which “δ, DPDPE Ke” value [1] is on record?
A: 854 ± 210 nM

Q: And the “μ, DAMGO Ke” value [2]?
A: 3.6 ± 1 nM

Q: And the “κ, U69,593 Ke” value [3]?
A: 0.03 nM and 0.03 ± 0.008 nM

Q: Which results are given for `COc1cccc([C@]2(C)CCN(C[C@@H](NC(=O)[C@@]3(C)Cc4ccc(O)cc4CN3)C(C)C)C[C@@H]2C)c1` [Compound 8h, (3R)-7-Hydroxy-N-[(1S)-1-{[(3R,4R)-4-(3-methoxyphenyl)-3,4-dimethylpiperidin-1-yl]methyl}-2-methylpropyl]-3-methyl-1,2,3,4-tetrahydroisoquinoline-3-carboxamide]?
A: Kb [1]: 2200 ± 900 nM; Kb [3]: 0.26 ± 0.1 nM

Q: For `COc1ccc2c(c1)CN(C)[C@@](C)(C(=O)N[C@H](CN1CC[C@@](C)(c3cccc(O)c3)[C@@H](C)C1)C(C)C)C2` (as salt: hydrochloride) [Compound 8o, (3R)-7-Methoxy-N-[(1S)-1-{[(3R,4R)-4-(3-hydroxyphenyl)-3,4-dimethylpiperidin-1-yl]methyl}-2-methylpropyl]-2,3-dimethyl-1,2,3,4-tetrahydroisoquinoline-3-carboxamide], which melting point is on record?
A: 199 °C (dec.)

Q: With `CC[C@H](C)[C@@H](CN1CC[C@@](C)(c2cccc(O)c2)[C@@H](C)C1)NC(=O)[C@@]1(C)Cc2ccc(O)cc2CN1` [Compound 8i, (3R)-7-Hydroxy-N-[(1S,2S)-1-{[(3R,4R)-4-(3-hydroxyphenyl)-3,4-dimethylpiperidin-1-yl]methyl}-2-methylbutanyl]-3-methyl-1,2,3,4-tetrahydroisoquinoline-3-carboxamide] as the compound, how does the Kb [2] read?
A: 8.7 ± 2.7 nM

Q: What about the “potency at μ receptors compared to 3” value [2] of the same compound?
A: increased potency

Q: And the Kb [3]?
A: 0.11 ± 0.01 nM

Q: For `COc1cccc([C@]2(C)CCN(C[C@@H](NC(=O)[C@@]3(C)Cc4ccc(O)cc4CN3)C(C)C)C[C@@H]2C)c1` (as salt: hydrochloride) [Compound 8h, (3R)-7-Hydroxy-N-[(1S)-1-{[(3R,4R)-4-(3-methoxyphenyl)-3,4-dimethylpiperidin-1-yl]methyl}-2-methylpropyl]-3-methyl-1,2,3,4-tetrahydroisoquinoline-3-carboxamide], which melting point is on record?
A: > 220 °C (dec.)

Q: Which Kb [2] does the source give for `COc1ccc2c(c1)CN(C)[C@@](C)(C(=O)N[C@H](CN1CC[C@@](C)(c3cccc(O)c3)[C@@H](C)C1)C(C)C)C2` [Compound 8o, (3R)-7-Methoxy-N-[(1S)-1-{[(3R,4R)-4-(3-hydroxyphenyl)-3,4-dimethylpiperidin-1-yl]methyl}-2-methylpropyl]-2,3-dimethyl-1,2,3,4-tetrahydroisoquinoline-3-carboxamide] here?
A: 7 ± 1.4 nM

Q: And the Kb [3]?
A: 2.2 ± 0.6 nM

Q: And the “change in potency on N-methylation” value [3]?
A: decreases in potency

Q: Which results are given for `COc1cccc([C@]2(C)CCN(C[C@@H](NC(=O)[C@@]3(C)Cc4ccc(OC)cc4CN3)C(C)C)C[C@@H]2C)c1` [Compound 8l, (3R)-7-Methoxy-N-[(1S)-1-{[(3R,4R)-4-(3-methoxyphenyl)-3,4-dimethylpiperidin-1-yl]methyl}-2-methylpropyl]-3-methyl-1,2,3,4-tetrahydroisoquinoline-3-carboxamide]?
A: Kb [1]: > 10000 nM; Kb [3]: 15.2 ± 3.7 nM

Q: With `CC[C@H](C)[C@@H](CN1CC[C@@](C)(c2cccc(OC)c2)[C@@H](C)C1)NC(=O)[C@H]1Cc2ccc(O)cc2CN1C` (as salt: hydrochloride) [Compound 8p, (3R)-7-Hydroxy-N-[(1S,2S)-1-{[(3R,4R)-4-(3-methoxyphenyl)-3,4-dimethylpiperidin-1-yl]methyl}-2-methylbutanyl]-2-methyl-1,2,3,4-tetrahydroisoquinoline-3-carboxamide] as the compound, how does the melting point read?
A: 180 °C (dec.)

Q: Which “δ, DPDPE Ke” value [1] does the source give for `CC(C)[C@@H](CN1CC[C@@](C)(c2cccc(O)c2)[C@@H](C)C1)NC(=O)[C@H]1Cc2ccc(O)cc2CN1C` [Compound 8c] here?
A: 491 ± 120 nM

Q: What about the “μ, DAMGO Ke” value [2] of the same compound?
A: 210 ± 60 nM

Q: What about the “change in potency on N-methylation” value [3] of the same compound?
A: reduction in potency at all receptor subtypes

Q: And the “κ, U69,593 Ke” value [3]?
A: 0.16 nM and 0.16 ± 0.06 nM

Q: And the δ/κ [3]?
A: 3070

Q: What about the μ/κ [3] of the same compound?
A: 1313

Q: With `COc1cccc([C@]2(C)CCN(C[C@@H](NC(=O)[C@H]3Cc4ccc(O)cc4CN3C)C(C)C)C[C@@H]2C)c1` (as salt: hydrochloride) [Compound 8k, (3R)-7-Hydroxy-N-[(1S)-1-{[(3R,4R)-4-(3-methoxyphenyl)-3,4-dimethylpiperidin-1-yl]methyl}-2-methylpropyl]-2-methyl-1,2,3,4-tetrahydroisoquinoline-3-carboxamide] as the compound, how does the melting point read?
A: 210 to 215 °C (dec.)

Q: What does the source list for “(3R)-7-Methoxy-N-[(1S,2S)-1-{[(3R,4R)-4-(3-hydroxyphenyl)-3,4-dimethylpiperidin-1-yl]}-2-methylbutanyl]-3-methyl-1,2,3,4-tetrahydroisoquinoline-3-carboxamide [Compound 8m]”?
A: δ, DPDPE Ke [1]: 18.7 ± 1.5 nM; μ, DAMGO Ke [2]: 17.5 ± 3.6 nM; potency at μ receptors compared to 3 [2]: increased potency; δ/κ [3]: 5; μ/κ [3]: 5

Q: Which results are given for `COc1ccc2c(c1)CN[C@@](C)(C(=O)N[C@H](CN1CC[C@@](C)(c3cccc(O)c3)[C@@H](C)C1)C(C)C)C2` [Compound 8g, (3R)-7-Methoxy-N-[(1S)-1-[(3R,4R)-4-(3-hydroxyphenyl)-3,4-dimethylpiperidin-1-yl]methyl}-(2-methylpropyl]-3-methyl-1,2,3,4-tetrahydroisoquinoline-3-carboxamide]?
A: δ, DPDPE Ke [1]: 36.8 ± 6.9 nM; μ, DAMGO Ke [2]: 3.8 ± 1.1 nM; κ, U69,593 Ke [3]: 0.93 ± 0.05 nM; δ/κ [3]: 40; μ/κ [3]: 4

Q: For `COc1cccc([C@]2(C)CCN(C[C@@H](NC(=O)[C@@]3(C)Cc4ccc(OC)cc4CN3)C(C)C)C[C@@H]2C)c1` (as salt: hydrochloride) [Compound 8l, (3R)-7-Methoxy-N-[(1S)-1-{[(3R,4R)-4-(3-methoxyphenyl)-3,4-dimethylpiperidin-1-yl]methyl}-2-methylpropyl]-3-methyl-1,2,3,4-tetrahydroisoquinoline-3-carboxamide], which melting point is on record?
A: > 220 °C (dec.)

Q: What does the source list for `COc1cccc([C@]2(C)CCN(C[C@@H](NC(=O)[C@H]3Cc4ccc(O)cc4CN3)C(C)C)C[C@@H]2C)c1` [Compound 8d, (3R)-7-Hydroxy-N-[(1S)-1-{[(3R,4R)-4-(3-methoxyphenyl)-3,4-dimethylpiperidin-1-yl]methyl}-2-methylpropyl]-1,2,3,4-tetrahydroisoquinoline-3-carboxamide]?
A: Kb [1]: 21.2 ± 5 nM; Kb [2]: 24 ± 8 nM; Kb [3]: 0.037 ± 0.003 nM; decrease in potency at the κ receptor relative to 3 ([3]; compared with 3): two-fold decrease in potency; δ/κ [3]: 573; μ/κ [3]: 649

Q: With `CC[C@H](C)[C@@H](CN1CC[C@@](C)(c2cccc(O)c2)[C@@H](C)C1)NC(=O)[C@H]1Cc2ccc(O)cc2CN1C` [Compound 8j, (3R)-7-Hydroxy-N-[(1S,2S)-1-{[(3R,4R)-4-(3-hydroxyphenyl)-3,4-dimethylpiperidin-1-yl]methyl}-2-methylbutanyl]-2-methyl-1,2,3,4-tetrahydroisoquinoline-3-carboxamide] as the compound, how does the Kb [1] read?
A: 132 ± 24 nM

Q: What about the Kb [2] of the same compound?
A: 7.2 ± 1.8 nM

Q: What about the “potency at μ receptors compared to 3” value [2] of the same compound?
A: increased potency

Q: What about the Kb [3] of the same compound?
A: 0.11 ± 0.03 nM

Q: What about the “change in potency on N-methylation” value [3] of the same compound?
A: decreases in potency

Q: What about the δ/κ [3] of the same compound?
A: 1200

Q: And the μ/κ [3]?
A: 66

Q: What does the source list for `COc1cccc([C@]2(C)CCN(C[C@@H](NC(=O)[C@H]3Cc4ccc(O)cc4CN3C)C(C)C)C[C@@H]2C)c1` [Compound 8k, (3R)-7-Hydroxy-N-[(1S)-1-{[(3R,4R)-4-(3-methoxyphenyl)-3,4-dimethylpiperidin-1-yl]methyl}-2-methylpropyl]-2-methyl-1,2,3,4-tetrahydroisoquinoline-3-carboxamide]?
A: Kb [1]: 2300 ± 900 nM; Kb [2]: 880 ± 220 nM; Kb [3]: 4.3 ± 2.7 nM; change in potency on N-methylation at the tetrahydroisoquinoline nitrogen [3]: decreases in potency
